Data from the NIST ThermoML archive (doi:10.1016/j.jct.2010.11.017).

Columns and labels:
[1] = wn = mass fraction of the nth substance listed; conditions: 101 kPa, Liquid, w2 = 0; for viscosity: Capillary tube (Ostwald / Ubbelohde) method; for speed of sound: Frequency=3 MHz, Linear variable-path acoustic interferometer
[2] = mn = molality of the nth substance listed, in mol/kg; conditions: 101 kPa, Liquid, m2 = 0; for viscosity: Capillary tube (Ostwald / Ubbelohde) method; for speed of sound: Frequency=3 MHz, Linear variable-path acoustic interferometer

O [water] + O=C[C@H](O)[C@@H](O)[C@H](O)[C@H](O)CO
[1]
Conditions	speed of sound [m/s]	viscosity [mPa·s]
293.15 K	1483.6	1.002
298.15 K	–	0.8903
303.15 K	1508.4	0.7973
308.15 K	–	0.719
313.15 K	1526.8	0.6526
318.15 K	1533	0.5972

Conditions	mass density [kg/m3]
[1], 308.15 K, Pycnometric method	994.07

O [water] + N[C@@H](Cc1c[nH]cn1)C(=O)O
[2]
Conditions	speed of sound [m/s]	viscosity [mPa·s]
293.15 K	1483.6	1.002
298.15 K	–	0.8903
303.15 K	1508.4	0.7973
308.15 K	–	0.719
313.15 K	1526.8	0.6526
318.15 K	1533	0.5972

Conditions	mass density [kg/m3]
[2], 308.15 K, Pycnometric method	994.07
